# Assay results from ChEMBL document CHEMBL3792311, “In vitro and in vivo activity of ML302F: a thioenolate inhibitor of VIM-subfamily metallo -lactamases” (Medchemcomm, 2016).
# Active and inactive are the calls of the source. No cut-off for these calls is given here.
# Assays:
# Pseudomonas aeruginosa [1] = experiment: Potentiation of meropenem-induced antibacterial activity against VIM2 carbapenemase producing multidrug-resistant Pseudomonas aeruginosa 15 clinical isolate assessed as MIC of meropenem at 1:8 meropenem:compound ratio by broth microtiter dilution method; type: functional
# Pseudomonas aeruginosa [2] = experiment: Potentiation of meropenem-induced antibacterial activity against VIM2 carbapenemase producing multidrug-resistant Pseudomonas aeruginosa 16 clinical isolate assessed as MIC of meropenem at 1:8 meropenem:compound ratio by broth microtiter dilution method; type: functional
# Pseudomonas aeruginosa [3] = experiment: Potentiation of meropenem-induced antibacterial activity against VIM2 carbapenemase producing multidrug-resistant Pseudomonas aeruginosa 27 clinical isolate assessed as MIC of meropenem at 1:8 meropenem:compound ratio by broth microtiter dilution method; type: functional
# Klebsiella oxytoca [4] = experiment: Potentiation of meropenem-induced antibacterial activity against VIM4 carbapenemase producing multidrug-resistant Klebsiella oxytoca 95 clinical isolate assessed as MIC of meropenem at 1:8 meropenem:compound ratio by broth microtiter dilution method; type: functional
# Klebsiella oxytoca [5] = experiment: Potentiation of meropenem-induced antibacterial activity against VIM4 carbapenemase producing multidrug-resistant Klebsiella oxytoca 126 clinical isolate assessed as MIC of meropenem at 1:8 meropenem:compound ratio by broth microtiter dilution method; type: functional
# Klebsiella pneumoniae [6] = experiment: Potentiation of meropenem-induced antibacterial activity against VIM1 carbapenemase producing multidrug-resistant Klebsiella pneumoniae 177 clinical isolate at 1:8 meropenem:compound ratio by checkerboard method; type: functional
# Providencia stuartii = experiment: Potentiation of meropenem-induced antibacterial activity against VIM1 carbapenemase producing multidrug-resistant Providencia stuartii 67 clinical isolate at 1:8 meropenem:compound ratio by checkerboard method; type: functional
# Pseudomonas aeruginosa [7] = experiment: Potentiation of meropenem-induced antibacterial activity against VIM2 carbapenemase producing multidrug-resistant Pseudomonas aeruginosa 30 clinical isolate assessed as MIC of meropenem at 1:8 meropenem:compound ratio by broth microtiter dilution method; type: functional
# Pseudomonas aeruginosa [8] = experiment: Potentiation of meropenem-induced antibacterial activity against VIM2 carbapenemase producing multidrug-resistant Pseudomonas aeruginosa 47 clinical isolate assessed as MIC of meropenem at 1:8 meropenem:compound ratio by broth microtiter dilution method; type: functional
# Pseudomonas aeruginosa [9] = experiment: Potentiation of meropenem-induced antibacterial activity against VIM2 carbapenemase producing multidrug-resistant Pseudomonas aeruginosa GR57 clinical isolate assessed as MIC of meropenem at 1:8 meropenem:compound ratio by broth microtiter dilution method; type: functional
# Pseudomonas aeruginosa [10] = experiment: Potentiation of meropenem-induced antibacterial activity against VIM2 carbapenemase producing multidrug-resistant Pseudomonas aeruginosa GR58 clinical isolate assessed as MIC of meropenem at 1:8 meropenem:compound ratio by broth microtiter dilution method; type: functional
# Pseudomonas aeruginosa [11] = experiment: Potentiation of meropenem-induced antibacterial activity against VIM2 carbapenemase producing multidrug-resistant Pseudomonas aeruginosa GR64 clinical isolate assessed as MIC of meropenem at 1:8 meropenem:compound ratio by broth microtiter dilution method; type: functional
# Pseudomonas aeruginosa [12] = experiment: Potentiation of meropenem-induced antibacterial activity against VIM2 carbapenemase producing multidrug-resistant Pseudomonas aeruginosa 3 clinical isolate assessed as MIC of meropenem at 1:8 meropenem:compound ratio by broth microtiter dilution method; type: functional
# [13] = Inhibition of beta-lactamase VIM-2 (unknown origin)
# Pseudomonas aeruginosa [14] = experiment: Antibacterial activity against VIM2 carbapenemase producing multidrug-resistant Pseudomonas aeruginosa GR57 clinical isolate infected in Galleria mellonella larvae assessed as survival rate at 4.8 mg/kg measured at 96 hrs; type: functional, organism-based
# Klebsiella pneumoniae [15] = experiment: Potentiation of meropenem-induced antibacterial activity against VIM4 carbapenemase producing multidrug-resistant Klebsiella pneumoniae 120 clinical isolate infected in Galleria mellonella larvae assessed as relative risk of survival at 4.8 mg/kg measured at 96 hrs relative to control; type: functional
# Escherichia coli = experiment: Potentiation of meropenem-induced antibacterial activity against VIM4 carbapenemase producing multidrug-resistant Escherichia coli 98 clinical isolate infected in Galleria mellonella larvae assessed as relative risk of survival at 4.8 mg/kg measured at 96 hrs relative to control; type: functional
# Klebsiella pneumoniae [16] = experiment: Antibacterial activity against VIM1 carbapenemase producing multidrug-resistant Klebsiella pneumoniae GR54 clinical isolate up to 512 mg/L by broth microtiter dilution method; type: functional, organism-based
# Klebsiella pneumoniae [17] = experiment: Antibacterial activity against VIM1 carbapenemase producing multidrug-resistant Klebsiella pneumoniae 177 clinical isolate up to 512 mg/L by broth microtiter dilution method; type: functional, organism-based
# Pseudomonas aeruginosa [18] = experiment: Antibacterial activity against VIM2 carbapenemase producing multidrug-resistant Pseudomonas aeruginosa 8 clinical isolate up to 512 mg/L by broth microtiter dilution method; type: functional, organism-based
# Pseudomonas aeruginosa [19] = experiment: Antibacterial activity against VIM2 carbapenemase producing multidrug-resistant Pseudomonas aeruginosa 9 clinical isolate up to 512 mg/L by broth microtiter dilution method; type: functional, organism-based
# Pseudomonas aeruginosa [20] = experiment: Antibacterial activity against VIM2 carbapenemase producing multidrug-resistant Pseudomonas aeruginosa 11 clinical isolate up to 512 mg/L by broth microtiter dilution method; type: functional, organism-based
# Pseudomonas aeruginosa [21] = experiment: Antibacterial activity against VIM2 carbapenemase producing multidrug-resistant Pseudomonas aeruginosa 13 clinical isolate up to 512 mg/L by broth microtiter dilution method; type: functional, organism-based
# Pseudomonas aeruginosa [22] = experiment: Antibacterial activity against VIM2 carbapenemase producing multidrug-resistant Pseudomonas aeruginosa 16 clinical isolate up to 512 mg/L by broth microtiter dilution method; type: functional, organism-based
# Pseudomonas aeruginosa [23] = experiment: Antibacterial activity against VIM2 carbapenemase producing multidrug-resistant Pseudomonas aeruginosa 27 clinical isolate up to 512 mg/L by broth microtiter dilution method; type: functional, organism-based
# Klebsiella oxytoca [24] = experiment: Antibacterial activity against VIM4 carbapenemase producing multidrug-resistant Klebsiella oxytoca 95 clinical isolate up to 512 mg/L by broth microtiter dilution method; type: functional, organism-based
# Klebsiella pneumoniae [25] = experiment: Antibacterial activity against VIM4 carbapenemase producing multidrug-resistant Klebsiella pneumoniae 101 clinical isolate up to 512 mg/L by broth microtiter dilution method; type: functional, organism-based
# Klebsiella pneumoniae [26] = experiment: Antibacterial activity against VIM4 carbapenemase producing multidrug-resistant Klebsiella pneumoniae 120 clinical isolate up to 512 mg/L by broth microtiter dilution method; type: functional, organism-based
# Pseudomonas aeruginosa [27] = experiment: Antibacterial activity against VIM2 carbapenemase producing multidrug-resistant Pseudomonas aeruginosa GR62 clinical isolate up to 512 mg/L by broth microtiter dilution method; type: functional, organism-based
# Pseudomonas aeruginosa [28] = experiment: Potentiation of meropenem-induced antibacterial activity against VIM2 carbapenemase producing multidrug-resistant Pseudomonas aeruginosa GR57 clinical isolate at 1:8 meropenem:compound ratio by checkerboard method; type: functional
# Pseudomonas aeruginosa [29] = experiment: Potentiation of meropenem-induced antibacterial activity against VIM2 carbapenemase producing multidrug-resistant Pseudomonas aeruginosa 13 clinical isolate at 1:8 meropenem:compound ratio by checkerboard method; type: functional
# Pseudomonas aeruginosa [30] = experiment: Potentiation of meropenem-induced antibacterial activity against VIM2 carbapenemase producing multidrug-resistant Pseudomonas aeruginosa 14 clinical isolate at 1:8 meropenem:compound ratio by checkerboard method; type: functional
# Pseudomonas aeruginosa [31] = experiment: Potentiation of meropenem-induced antibacterial activity against VIM2 carbapenemase producing multidrug-resistant Pseudomonas aeruginosa 16 clinical isolate at 1:8 meropenem:compound ratio by checkerboard method; type: functional
# Pseudomonas aeruginosa [32] = experiment: Potentiation of meropenem-induced antibacterial activity against VIM2 carbapenemase producing multidrug-resistant Pseudomonas aeruginosa 27 clinical isolate at 1:8 meropenem:compound ratio by checkerboard method; type: functional
# Klebsiella oxytoca [33] = experiment: Potentiation of meropenem-induced antibacterial activity against VIM4 carbapenemase producing multidrug-resistant Klebsiella oxytoca 95 clinical isolate at 1:8 meropenem:compound ratio by checkerboard method; type: functional
# Klebsiella oxytoca [34] = experiment: Potentiation of meropenem-induced antibacterial activity against VIM4 carbapenemase producing multidrug-resistant Klebsiella oxytoca 126 clinical isolate at 1:8 meropenem:compound ratio by checkerboard method; type: functional
structure (smiles),measurement,setting,value
O=C(O)/C(S)=C/c1c(Cl)ccc(Cl)c1Cl,MIC,Pseudomonas aeruginosa [1],16 µg/mL
same,MIC,Pseudomonas aeruginosa [2],16 µg/mL
same,MIC,Pseudomonas aeruginosa [3],16 µg/mL
same,MIC,Klebsiella oxytoca [4],8 µg/mL
same,MIC,Klebsiella oxytoca [5],4 µg/mL
same,fractional inhibitory concentration index (FICI),Klebsiella pneumoniae [6],1.02
same,fractional inhibitory concentration index (FICI),Providencia stuartii,0.14
same,MIC,Pseudomonas aeruginosa [7],8 µg/mL
same,MIC,Pseudomonas aeruginosa [8],1 µg/mL
same,MIC,Pseudomonas aeruginosa [9],4 µg/mL
same,MIC,Pseudomonas aeruginosa [10],8 µg/mL
same,MIC,Pseudomonas aeruginosa [11],4 µg/mL
same,MIC,Pseudomonas aeruginosa [12],8 µg/mL
same,IC50,[13],300 nM
same,Activity,Pseudomonas aeruginosa [14],Active
same,fold change (FC),Klebsiella pneumoniae [15],0.7
same,fold change (FC),Escherichia coli,0.64
same,Activity,Klebsiella pneumoniae [16],inactive
same,Activity,Klebsiella pneumoniae [17],inactive
same,Activity,Pseudomonas aeruginosa [18],inactive
same,Activity,Pseudomonas aeruginosa [19],inactive
same,Activity,Pseudomonas aeruginosa [20],inactive
same,Activity,Pseudomonas aeruginosa [21],inactive
same,Activity,Pseudomonas aeruginosa [22],inactive
same,Activity,Pseudomonas aeruginosa [23],inactive
same,Activity,Klebsiella oxytoca [24],inactive
same,Activity,Klebsiella pneumoniae [25],inactive
same,Activity,Klebsiella pneumoniae [26],inactive
same,Activity,Pseudomonas aeruginosa [27],inactive
same,fractional inhibitory concentration index (FICI),Pseudomonas aeruginosa [28],0.19
same,fractional inhibitory concentration index (FICI),Pseudomonas aeruginosa [29],0.75
same,fractional inhibitory concentration index (FICI),Pseudomonas aeruginosa [30],0.06
same,fractional inhibitory concentration index (FICI),Pseudomonas aeruginosa [31],0.5
same,fractional inhibitory concentration index (FICI),Pseudomonas aeruginosa [32],0.5
same,fractional inhibitory concentration index (FICI),Klebsiella oxytoca [33],0.38
same,fractional inhibitory concentration index (FICI),Klebsiella oxytoca [34],0.19
